Test results published in patent publication US20220096487A1 (priority 2019, published 2022).
pEC50, pIC50: −log10 of the molar value. Entries after “also recorded” stand apart in the source; their conditions may differ. Marks after values point to notes of the source that are not given here.

What was measured:
CYP1A2 = CYP1A2 (Homo sapiens, UniProt P05177); test: In vitro inhibition of CYP1A2; type: in vitro ADME; conditions: did not inhibit
L5178Y mouse lymphoma = test: Mouse lymphoma assay
[1] = Bacterial reverse mutation assay
[2] = Pharmacokinetic properties of the components (Table 6); type: in vivo, human; conditions: in vivo
[3] = cited from earlier work
[4] = tested on: INSTI-resistant site-directed mutant HIV-1 viruses; test: Susceptibility against INSTI-resistant site-directed mutant viruses; type: cell-based
OCT1 = OCT1 (Homo sapiens, UniProt O15245); test: In vitro inhibition of OCT1; type: in vitro ADME; conditions: did not inhibit
renal OCT2 = renal OCT2 (Homo sapiens, UniProt O15244); test: In vitro inhibition of renal OCT2; type: in vitro ADME
CYP3A4 = test: In vitro induction of CYP3A4; type: in vitro ADME
CYP2C9 = CYP2C9 (Homo sapiens, UniProt P11712); test: In vitro inhibition of CYP2C9; type: in vitro ADME; conditions: did not inhibit
UGT1A9 = UGT1A9 (Homo sapiens, UniProt O60656); test: In vitro substrate assessment, UGT1A9; type: in vitro ADME
OATP1B3 = OATP1B3 (Homo sapiens, UniProt Q9NPD5); test: In vitro substrate assessment, OATP1B3; type: in vitro ADME
UGT1A1 = UGT1A1 (Homo sapiens, UniProt P22309); test: In vitro inhibition of UGT1A1; type: in vitro ADME; conditions: did not inhibit
[5] = tested on: HIV-1 clinical isolates (group M clades A-G, group O); test: Antiviral activity in cell culture against panel of HIV-1 clinical isolates; type: cell-based; conditions: Human immunodeficiency virus 1; 3 in each group of M [clades A-G], and 3 in group O
[6] = Population pharmacokinetic analyses; type: in vivo, human
[7] = In vivo rodent micronucleus assay
UGT1A3 = UGT1A3 (Homo sapiens, UniProt P35503); test: In vitro substrate assessment, UGT1A3; type: in vitro ADME
[8] = tested on: HIV-1 with integrase substitutions; test: Selection of dolutegravir-resistant viruses in cell culture; type: cell-based
OAT3 = OAT3 (Homo sapiens, UniProt Q8TCC7); test: In vitro inhibition of OAT3; type: in vitro ADME
[9] = Single-dose mass balance study of [14C] dolutegravir; type: in vivo, human
P-gp = P-gp (Homo sapiens, UniProt P08183); test: In vitro inhibition of P-gp; type: in vitro ADME; conditions: did not inhibit
[10] = target: bile salt export pump (BSEP) (Homo sapiens, UniProt O95342); test: In vitro inhibition of BSEP; type: in vitro ADME; conditions: did not inhibit
CYP2B6 = CYP2B6 (Homo sapiens, UniProt P20813); test: In vitro inhibition of CYP2B6; type: in vitro ADME; conditions: did not inhibit
[11] = Carcinogenicity studies in mice; conditions: two-year study, doses up to 500 mg/kg, highest dose tested
[12] = Thorough QT trial in healthy subjects; type: in vivo, human
[13] = target: organic anion transporter polypeptide (OATP)1B1 (Homo sapiens, UniProt Q9Y6L6); test: In vitro inhibition of OATP1B1; type: in vitro ADME; conditions: did not inhibit
HIV-2 clinical isolates = test: Dolutegravir PBMC assays against HIV-2 clinical isolates; type: cell-based; conditions: Human immunodeficiency virus 2, three HIV-2 clinical isolates
[14] = Dolutegravir embryo-fetal development study in pregnant rats; type: in vivo, rat; conditions: oral up to 1,000 mg/kg daily, gestation Days 6 to 17
CYP2A6 = CYP2A6 (Homo sapiens, UniProt P11509); test: In vitro inhibition of CYP2A6; type: in vitro ADME; conditions: did not inhibit
CYP2C8 = CYP2C8 (Homo sapiens, UniProt P10632); test: In vitro inhibition of CYP2C8; type: in vitro ADME; conditions: did not inhibit
MATE1 = MATE1 (Homo sapiens, UniProt Q96FL8); test: In vitro inhibition of MATE1; type: in vitro ADME
CYP2C19 = CYP2C19 (Homo sapiens, UniProt P33261); test: In vitro inhibition of CYP2C19; type: in vitro ADME; conditions: did not inhibit
[15] = Established and other potentially significant drug interactions for dolutegravir (Table 5); type: in vivo, human
Text: These recommendations are based on either drug interaction trials or predicted interactions due to the expected magnitude of interaction and potential for serious adverse events or loss of efficacy [see Contraindications (4), Clinical Pharmacology (12.3)].

OAT1 and OAT3 = test: In vivo effect on OAT1 and OAT3 substrates

Chain of MATE1 (Q96FL8 whole entry): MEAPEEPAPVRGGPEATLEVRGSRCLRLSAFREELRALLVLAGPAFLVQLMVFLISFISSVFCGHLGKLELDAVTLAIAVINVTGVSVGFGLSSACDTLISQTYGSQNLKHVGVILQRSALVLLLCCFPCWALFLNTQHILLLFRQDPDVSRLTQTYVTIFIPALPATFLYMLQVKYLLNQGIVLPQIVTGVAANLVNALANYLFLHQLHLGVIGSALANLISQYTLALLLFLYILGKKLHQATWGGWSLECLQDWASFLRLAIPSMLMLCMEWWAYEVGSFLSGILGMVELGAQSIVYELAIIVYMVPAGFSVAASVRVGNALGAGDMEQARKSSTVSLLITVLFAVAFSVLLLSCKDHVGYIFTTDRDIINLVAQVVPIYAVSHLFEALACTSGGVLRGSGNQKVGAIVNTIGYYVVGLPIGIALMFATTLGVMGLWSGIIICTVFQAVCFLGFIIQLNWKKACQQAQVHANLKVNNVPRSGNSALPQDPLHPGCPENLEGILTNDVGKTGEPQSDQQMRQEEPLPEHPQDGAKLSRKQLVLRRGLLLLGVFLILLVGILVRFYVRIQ
Chain of OCT1 (O15245 whole entry): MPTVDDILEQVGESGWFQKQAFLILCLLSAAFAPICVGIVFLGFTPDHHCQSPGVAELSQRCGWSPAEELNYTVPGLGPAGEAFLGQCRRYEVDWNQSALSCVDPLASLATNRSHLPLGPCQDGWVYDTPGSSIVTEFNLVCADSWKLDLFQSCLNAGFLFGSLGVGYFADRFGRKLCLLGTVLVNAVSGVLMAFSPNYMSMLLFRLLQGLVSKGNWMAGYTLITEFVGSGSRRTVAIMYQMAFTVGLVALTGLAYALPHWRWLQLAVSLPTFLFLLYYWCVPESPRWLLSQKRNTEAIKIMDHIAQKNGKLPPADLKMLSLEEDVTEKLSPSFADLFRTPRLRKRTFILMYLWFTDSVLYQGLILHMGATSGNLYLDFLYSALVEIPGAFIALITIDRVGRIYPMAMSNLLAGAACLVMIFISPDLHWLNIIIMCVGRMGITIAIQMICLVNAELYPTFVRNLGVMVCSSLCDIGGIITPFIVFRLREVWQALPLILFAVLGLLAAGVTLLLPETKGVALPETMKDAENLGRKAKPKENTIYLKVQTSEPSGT
Chain of CYP2A6 (P11509 whole entry): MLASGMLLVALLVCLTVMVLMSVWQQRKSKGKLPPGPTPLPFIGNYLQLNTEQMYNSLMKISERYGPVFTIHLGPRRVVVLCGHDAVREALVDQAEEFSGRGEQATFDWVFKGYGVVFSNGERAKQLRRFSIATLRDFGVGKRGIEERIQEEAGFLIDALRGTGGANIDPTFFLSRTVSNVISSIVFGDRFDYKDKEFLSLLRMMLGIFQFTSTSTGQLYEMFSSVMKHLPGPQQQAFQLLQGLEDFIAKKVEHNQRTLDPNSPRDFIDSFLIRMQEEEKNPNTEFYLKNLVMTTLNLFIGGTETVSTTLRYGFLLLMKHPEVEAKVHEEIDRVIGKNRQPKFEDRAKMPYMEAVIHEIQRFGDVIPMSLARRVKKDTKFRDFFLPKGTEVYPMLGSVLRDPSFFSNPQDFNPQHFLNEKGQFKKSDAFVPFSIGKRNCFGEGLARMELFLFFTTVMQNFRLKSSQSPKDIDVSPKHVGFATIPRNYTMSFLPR
Chain of UGT1A9 (O60656 26-530): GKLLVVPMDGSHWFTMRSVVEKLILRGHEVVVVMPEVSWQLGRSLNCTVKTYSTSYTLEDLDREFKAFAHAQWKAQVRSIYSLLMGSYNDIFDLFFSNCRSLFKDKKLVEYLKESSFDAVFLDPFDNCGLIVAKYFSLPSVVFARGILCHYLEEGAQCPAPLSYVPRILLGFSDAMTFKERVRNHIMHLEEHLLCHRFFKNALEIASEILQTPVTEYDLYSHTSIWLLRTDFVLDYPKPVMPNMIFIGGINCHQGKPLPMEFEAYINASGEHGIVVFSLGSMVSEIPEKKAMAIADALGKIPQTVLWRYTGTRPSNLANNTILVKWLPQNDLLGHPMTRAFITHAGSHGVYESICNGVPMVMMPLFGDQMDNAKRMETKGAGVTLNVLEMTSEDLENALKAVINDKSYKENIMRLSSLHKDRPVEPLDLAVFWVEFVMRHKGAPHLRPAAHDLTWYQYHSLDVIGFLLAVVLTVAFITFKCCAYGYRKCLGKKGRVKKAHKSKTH
Chain of OATP1B3 (Q9NPD5 whole entry): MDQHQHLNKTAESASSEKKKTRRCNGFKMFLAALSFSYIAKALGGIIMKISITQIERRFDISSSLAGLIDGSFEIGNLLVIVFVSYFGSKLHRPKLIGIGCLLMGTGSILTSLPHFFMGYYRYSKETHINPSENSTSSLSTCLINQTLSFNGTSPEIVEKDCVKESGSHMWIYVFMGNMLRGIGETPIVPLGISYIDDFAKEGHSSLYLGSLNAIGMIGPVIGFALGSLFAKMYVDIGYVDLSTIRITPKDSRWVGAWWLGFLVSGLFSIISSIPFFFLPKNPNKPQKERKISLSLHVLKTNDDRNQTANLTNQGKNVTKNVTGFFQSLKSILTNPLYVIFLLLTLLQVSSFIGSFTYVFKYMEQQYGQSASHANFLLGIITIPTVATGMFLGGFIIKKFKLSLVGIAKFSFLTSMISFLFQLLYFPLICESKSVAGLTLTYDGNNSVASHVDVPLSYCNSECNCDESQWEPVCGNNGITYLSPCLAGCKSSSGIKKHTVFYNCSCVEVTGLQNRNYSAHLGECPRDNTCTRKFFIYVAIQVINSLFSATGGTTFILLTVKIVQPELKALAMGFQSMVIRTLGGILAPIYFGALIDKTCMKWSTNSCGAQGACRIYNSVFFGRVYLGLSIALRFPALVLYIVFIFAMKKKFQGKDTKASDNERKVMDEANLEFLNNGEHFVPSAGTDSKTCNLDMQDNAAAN
Chain of CYP2C19 (P33261 whole entry): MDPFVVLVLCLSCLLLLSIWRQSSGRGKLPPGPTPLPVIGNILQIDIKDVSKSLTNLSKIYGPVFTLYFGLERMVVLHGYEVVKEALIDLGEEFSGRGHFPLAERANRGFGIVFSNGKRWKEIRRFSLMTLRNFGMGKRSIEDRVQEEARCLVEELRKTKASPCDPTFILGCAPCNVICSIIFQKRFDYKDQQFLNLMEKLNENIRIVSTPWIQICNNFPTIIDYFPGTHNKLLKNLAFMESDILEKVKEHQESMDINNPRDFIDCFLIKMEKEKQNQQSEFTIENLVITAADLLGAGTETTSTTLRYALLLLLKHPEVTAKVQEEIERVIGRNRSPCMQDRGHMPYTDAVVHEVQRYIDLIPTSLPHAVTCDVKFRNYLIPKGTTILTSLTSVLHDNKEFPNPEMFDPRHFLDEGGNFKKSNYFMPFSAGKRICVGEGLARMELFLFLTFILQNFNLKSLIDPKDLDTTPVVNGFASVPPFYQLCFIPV
Chain of OAT3 (Q8TCC7 whole entry): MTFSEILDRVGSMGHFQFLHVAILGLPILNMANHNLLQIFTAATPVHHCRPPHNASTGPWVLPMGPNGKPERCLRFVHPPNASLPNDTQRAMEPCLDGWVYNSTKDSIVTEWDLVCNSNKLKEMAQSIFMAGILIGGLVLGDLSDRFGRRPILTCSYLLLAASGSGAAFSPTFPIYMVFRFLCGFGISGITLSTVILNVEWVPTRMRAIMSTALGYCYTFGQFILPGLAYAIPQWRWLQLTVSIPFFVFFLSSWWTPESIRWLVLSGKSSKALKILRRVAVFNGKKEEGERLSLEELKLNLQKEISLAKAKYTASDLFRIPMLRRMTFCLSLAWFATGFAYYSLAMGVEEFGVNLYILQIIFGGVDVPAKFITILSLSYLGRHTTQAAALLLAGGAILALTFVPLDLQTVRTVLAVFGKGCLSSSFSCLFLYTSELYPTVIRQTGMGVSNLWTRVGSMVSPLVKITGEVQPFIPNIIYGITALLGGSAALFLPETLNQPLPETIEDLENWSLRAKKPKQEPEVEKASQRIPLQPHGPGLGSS
Chain of organic anion transporter polypeptide (OATP)1B1 (Q9Y6L6 whole entry): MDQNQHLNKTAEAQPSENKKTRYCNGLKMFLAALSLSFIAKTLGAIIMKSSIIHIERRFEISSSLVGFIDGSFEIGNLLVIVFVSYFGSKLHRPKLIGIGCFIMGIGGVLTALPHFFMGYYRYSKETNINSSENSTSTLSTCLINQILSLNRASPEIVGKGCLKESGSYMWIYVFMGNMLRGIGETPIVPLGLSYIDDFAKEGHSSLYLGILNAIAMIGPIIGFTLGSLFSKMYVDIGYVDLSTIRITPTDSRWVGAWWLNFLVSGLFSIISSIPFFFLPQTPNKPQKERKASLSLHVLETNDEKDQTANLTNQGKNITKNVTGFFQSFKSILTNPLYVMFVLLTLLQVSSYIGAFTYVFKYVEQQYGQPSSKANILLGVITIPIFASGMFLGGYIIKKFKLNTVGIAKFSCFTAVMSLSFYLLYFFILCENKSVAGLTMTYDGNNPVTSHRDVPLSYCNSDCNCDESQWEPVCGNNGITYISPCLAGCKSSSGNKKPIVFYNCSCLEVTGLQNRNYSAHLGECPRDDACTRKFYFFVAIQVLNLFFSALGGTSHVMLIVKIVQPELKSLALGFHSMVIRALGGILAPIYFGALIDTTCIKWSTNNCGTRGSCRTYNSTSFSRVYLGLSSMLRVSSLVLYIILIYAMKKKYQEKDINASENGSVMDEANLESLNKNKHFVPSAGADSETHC

With `C[C@@H]1CCO[C@H]2Cn3cc(C(=O)NCc4ccc(F)cc4F)c(=O)c(O)c3C(=O)N12` [Dolutegravir, dolutegravir] the pIC50 (CYP1A2) was < 4.30, the “Genotoxicity/mutagenicity, mouse lymphoma assay” value (L5178Y mouse lymphoma) was “not genotoxic” and the “Genotoxicity, bacterial reverse mutation assay” value [1] was “not genotoxic”. For the same compound, the half-life ([2]; human) was ~14 h, the “Major route of elimination” value [2] was “Metabolism” and the Metabolic pathways [2] was “UGT1A1; also recorded: CYP3A (minor)”. The “Tmax, median” value [2] was 2.5 h, the “Neural tube defects, % of births” value ([3]; mothers exposed to dolutegravir-containing regimens at the time of conception, 4 of 426 births) was 0.94% and the “Neural tube defect in infants” value ([3]; women who started dolutegravir during pregnancy (n=2,812)) was “No infant”. For the same compound, the “Decrease in dolutegravir susceptibility from reference” value ([4]; multiple substitutions T66K/L74M, E92Q/N155H, G140C/Q148R, G140S/Q148H, R or K, Q148R/N155H, T97A/G140S/Q148, E138/G140/Q148) was > 2 fold, the “Decrease in dolutegravir susceptibility from reference” value ([4]; single INSTI-resistance substitutions T66K, I151L, and S153Y) was > 2 fold and the pIC50 (OCT1) was < 4.30. For the same compound, the pIC50 (renal OCT2) was 5.71, the “Induction of CYP3A4” value (CYP3A4) was “did not induce” and the pIC50 (CYP2C9) was < 4.30. The “Substrate of UGT1A9” value (UGT1A9) was “substrate”, the “Substrate of OATP1B3” value (OATP1B3) was “not a substrate” and the pIC50 (UGT1A1) was < 4.30. The pEC50 [5] was 8.67 to 10.70, the “Effect of age on pharmacokinetics” value ([6]; in vivo) was “no clinically relevant effect” and the “Effect of gender and race on pharmacokinetics” value ([6]; studies with the individual components) was “no clinically relevant effect”. The “Genotoxicity, in vivo rodent micronucleus assay” value [7] was “not genotoxic”, the “Substrate of UGT1A3” value (UGT1A3) was “substrate” and the “Decreased susceptibility to dolutegravir” value ([8]; G118R) was 10 fold. The “Decreased susceptibility to dolutegravir” value ([8]; substitutions E92Q, S153F or Y, G193E or R263K) was “up to 4 fold”, the pIC50 (OAT3) was 5.71 and the “% of dose excreted as total 14C in feces” value ([9]; single dose) was 64%. For the same compound, the “% of dose excreted as total 14C in urine” value ([9]; single dose) was 31^b %, the “% of dose excreted as unchanged drug in feces” value ([9]; single dose) was 53% and the “% of dose excreted as unchanged drug in the urine” value ([9]; single-dose mass balance study of [14C] dolutegravir) was <1^b %. For the same compound, the pIC50 (P-gp) was < 4.30, the pIC50 [10] was < 4.30 and the pIC50 (CYP2B6) was < 4.30. The “AUC exposure multiple of human (50 mg once daily) with no significant increases in drug-related neoplasms” value [11] was “approximately 20 fold”, the “Maximum mean QTc change (QTcF)” value ([12]; dolutegravir 250-mg suspension single dose, baseline and placebo adjusted) was 2.4 ms and the QTc interval prolongation ([12]; over 24 hours postdose) was “did not prolong”. The pIC50 [13] was < 4.30, the pEC50 (HIV-2 clinical isolates) was 9.21 to 10.05 and the “Effects on embryo-fetal development” value [14] was “No adverse effects”. The pIC50 (CYP2A6) was < 4.30, the pIC50 (CYP2C8) was < 4.30 and the pIC50 (MATE1) was 5.20. For the same compound, the pIC50 (CYP2C19) was < 4.30, the “Effect on Concentration of dolutegravir” value ([15]; concomitant Carbamazepine) was “↓Dolutegravir” and the “Effect on Concentration of dolutegravir” value ([15]; concomitant Oxcarbazepine, Phenytoin, Phenobarbital, trial or predicted interaction) was “↓Dolutegravir”. The “Effect on Concentration of dolutegravir” value ([15]; concomitant Rifampin) was “↓Dolutegravir”, the “Effect on Concentration of dolutegravir” value ([15]; concomitant St. John's wort (Hypericum perforatum), trial or predicted interaction) was “↓Dolutegravir” and the “Effect on Concentration of dolutegravir” value ([15]; concomitant medications containing polyvalent cations (antacids, laxatives, sucralfate, buffered medications)) was “↓Dolutegravir”. The “Effect on Concentration of dolutegravir” value ([15]; concomitant oral calcium and iron supplements, including multivitamins) was “↓Dolutegravir” and the “Effect on plasma concentrations of tenofovir or para-amino hippurate, substrates of OAT1 and OAT3” value (OAT1 and OAT3) was “did not alter”.
